Laboratory results published in patent US7476655B2, “Materials and methods for regulating blood flow” (University of Florida Research Foundation, Inc., priority 2005, dated 2009).

Experiments:
cGMP-specific PDE = cGMP-specific PDE activity in PAEC (hydrolysis of 3H-cGMP in supernatant); assay type: cell-based; settings: 10 μM, 1 hr at 37° C., compared to control (FIG. 3)
Procedure: The synthetic peptides were evaluated to asses any association with modulation of cGMP-specific PDE activity in PAEC.
Cell monolayers were incubated in RPMI 1640 medium with or without (control) the presence of 10 μM each of P3, P4, P6 or Zaprinast for 1 hr at 37° C. After incubation, cells were washed, homogenized, and supernatant were collected by centrifugation at 15,000×g for 15 min at 4° C. PDE activity in the supernatant were measured by monitoring hydrolysis of 3H-cGMP as previously described (16).

hypoxic mice lungs = experiment: vasodilator response in excised hypoxic mouse lungs; parameters: species or system C57BL/6J mice; settings: 15 μM, with or without L-NAME 100 μM (FIG. 4)
Procedure: Specific pathogen-free female C57BL/6J mice (30-35 g body weight) were anesthetized with pentobarbital (60 mg/kg, ip), and the lungs were excised from the thorax, ventilated with air (control) or with 0% oxygen for 1 hour at 60 breaths/min with a SAR-830 series small animal ventilator at a tidal volume of 0.6-0.8 ml/100 g body weight. After development of hypoxic vasoconstriction, vasodilator response was monitored by addition of 15 μM each of P3, P4, P6 or zaprinast with or without the presence of nitric oxide synthase inhibitor (L-NAME, 100 μM). The vasodilatory response was continuously monitored as previously described (Hu et al. (2004) Am. J. Physiol. Lung Cell Mol. Physiol. 286:[…]-[…]).

eNOS = experiment: catalytic activity of eNOS in cultured pulmonary artery endothelial cells ([3H]-citrulline formation from [3H]-L-arginine); assay type: cell-based; settings: PAEC monolayers, varying concentrations, 37° C., 1 hr, compared to control (FIG. 2)
Procedure: The effects of the synthetic peptides (P3, P4, and P6) of the subject invention on the catalytic activity of eNOS were examined using a cultured pulmonary artery endothelial cell (PAEC) model.
PAEC monolayers were incubated in RPMI 1640 medium with or without (control) the presence of varying concentrations of P3, P4, or P6 at 37° C. for 1 hr. After incubation, the catalytic activity of eNOS was determined as previously described by monitoring formation of [3H]-citrulline from [3H]-L-arginine (Chen, S., J. M. Patel and E. R. Block ER (2000) “Angiotensin IV-mediated pulmonary artery vasorelaxation is due to endothelial intracellular calcium release” Am. J. Physiol. Lung Cell Mol. Physiol. 279:L849-L856; and Patel, J. M., Y. D. Li, J. L. Zhang et al. (1999) “Increased expression of calreticulin is linked to Ang-IV-mediated activation of lung endothelial NOS” Am. J. Physiol Lung Cell Mol. Physiol. 277:L794-L801).

hypoxic lungs [1] = experiment: in situ lung perfusion, pulmonary arterial pressure, rat model of hypoxic pulmonary hypertension; assay type: in vivo, Sprague Dawley rats; settings: for pulmonary arterial pressure (PAP): infusion of 20 μM (FIG. 6)
Procedure: (§1) Specific pathogen-free Sprague Dawley rats (200-250 g body weight) were anesthetized with pentobarbital (60 mg/kg, ip). After confirmation of deep anesthesia, the trachea was cannulated with an 18-G blunt-tipped catheter and ventilated (SAR-830/p small animal ventilator, CWE, Ardmoore, Pa.) at a tidal volume of 2.5 ml/min with warm humidified 21% O2/5% CO2/74% N2 at 60 breaths/min with peak inspiratory and expiratory pressures of 9 cm and 3 cm H2O, respectively. A thoracotomy was performed and 100 units heparin injected into the right ventricle (RV). PE-90 polyethylene tubing connected to a Cook Double Lumen Central Venous Catheter (Cook Critical Care, Bloomington, Ind.) was placed in the left atrium through the left vetricle and tied in place. After placement of another PE-90 polyethylene tube connected with a double lumen catheter in the main pulmonary artery (PA), the lung were ventilated with 21% O2/5% CO2/74% N2 (normoxic) at constant end-expiratory pressure of 20 cm H2O and perfused in situ in the open chest with RPMI 1640 without pH indicator containing 4% Ficoll at a constant flow of 2 ml/min. After 30 min, the ventilation mixture was changed to 2% O2/5% CO2/93% N2 (hypoxic) for 30 min and change in PA pressure was continuously recorded using PO-NE-MAH-P3P Lung Perfusion System software (Gould Instrument System) and the perfusate samples were collected to determine level of NO release as previously reported (Hu et al. Am. J. Physiol. Lung Cell Mol. Physiol. 286: L1066-L1074, 2004). The ventilation gas (hypoxic) was return to normoxic gas, and the lungs were perfused with P3 (20 and 40 μM) in RPMI 1640 or RMPI 1640 for 10 min, after which the hypoxic challenge with 2% O2 was repeated, and the PA pressure response was recorded.

NO release = NO release in perfusates of in situ perfused rat lungs; assay type: in vivo, Sprague Dawley rats
Procedure: as §1, with “After placement of another PE-90 polyethylene tube connected with a double lumen catheter in the main pulmonary artery (PA), the lung were ventilated with 21% O2/5% CO2/74% N2 (normoxic) at constant end-expiratory pressure of 20 cm H2O and perfused in situ in the open chest with RPMI 1640 without pH indicator containing 4% Ficoll at a constant flow of 2 ml/min.” left out

hypoxic lungs [2] = experiment: in vivo vasodilation effect in rats exposed to hypoxia (10% inspired O2) for 2 to 6 weeks; parameters: species or system Sprague Dawley rats; settings: 10 mg/kg or 20 mg/kg ip once every day
Procedure: Specific pathogen-free Sprague Dawley rats (200-250 g body weight) were exposed to hypoxia (10% inspired O2) in a Coy Laboratory hypoxia chamber equipped with auto purge, airlock, and automated live animal filtration and dehumidification systems for 2 to 6 weeks. Control (normoxia) animals were maintained in similar humidity and temperature environment. Hypoxia exposure was 24 hr/day, except when the chamber was open twice a week for 10-15 min each to clean cages and replenish food and water. All rats were exposed to 12:12-hr light/dark cycle and allowed free access to standard rat food and water. Some rats were administered P3 (+P3) in saline (10 mg/kg or 20 mg/kg, ip) or saline alone (−P3) once every day starting 24 hr prior to initiation of exposure to hypoxia. After 2, 3, and 6 weeks exposure animals were use to measure various parameters including changes in pulmonary artery pressure, lung weight/body weight (LW/BW) ratio, and right vertical/heart weight (RV/HW) ratio.

Compound | cGMP-specific catalytic activity of PDE (cGMP-specific PDE) | vasorelaxation of hypoxic mice lungs (hypoxic mice lungs) | catalytic activity of eNOS (eNOS) | magnitude of reduction of PAP in hypoxic lung versus normoxic lungs (hypoxic lungs [1]; hypoxic compared with normoxic lungs) | pulmonary arterial pressure (PAP) (hypoxic lungs [1]; hypoxic lungs) | attenuation of PAP at 40 μM relative to 20 μM (hypoxic lungs [1]; normoxic and hypoxic lungs, 40 μM) | pulmonary arterial pressure (PAP) (hypoxic lungs [1]; normoxic lungs) | NO release in perfusates (NO release; hypoxic lungs (FIG. 7)) | NO release in perfusates (NO release; normoxic lungs (FIG. 7)) | hypoxia-induced PAP pressure (hypoxic lungs [2]; hypoxia (FIG. 11)) | hypoxia-induced RV/HW ratio (hypoxic lungs [2]; hypoxia (FIG. 12))
CCCOc1ccccc1-c1nc2nn[nH]c2c(=O)[nH]1 [Zaprinast, reference compound] | loss PDE activity | vasorelaxtion | – | – | – | – | – | – | – | – | –
KKRFNSISCSSWRRKRKKR (Peptide (P4) used according to the subject invention.) | significantly reduced | – | significantly enhanced in a dose-dependent manner | – | – | – | – | – | – | – | –
KRFNSISCSSWRRKR (Peptide (P3) used according to the subject invention.) | significantly reduced | – | significantly enhanced in a dose-dependent manner | much greater | significantly attenuated | comparable | significantly attenuated | increases | increases | attenuated | attenuated
WRRKRKES (Peptide (P6) used according to the subject invention.) | significantly reduced | – | significantly enhanced in a dose-dependent manner | – | – | – | – | – | – | – | –
